According to patent US11028315B2, “Zwitterionic surfactants suitable for enhanced oil recovery” (RHODIA OPERATIONS, priority 2016, dated 2021):
Several values for one entry are separate records, joined by “and”; a condition that tells them apart may be missing. Equal values may be shown once.

Legend:
Assay type in all cases: physicochemical
[1] = Phase behavior: optimal wt. % of co-surfactant leading to Will phase behavior in presence of crude oil
Method: (§1) 2.1 In the following examples, the performances of surfactants formulations containing the betaine of example 1.3.1 in a brine solution at 50 g/L NaCl were compared.
(§2) The total surfactant concentration was set at 8 g/L and the formulation variable was the wt. % of the more hydrophilic zwitterionic surfactant (considered as co-surfactant) in the surfactant blend.
(§3) The wt. % of the more hydrophilic zwitterionic leading to a Will phase behavior (optimal wt %. of co-surfactant), was determined in presence of crude oil at 40° C. and reported in Table 1. The solubility of surfactant blends was also analyzed.

[2] = Solubility of surfactant blends (absorbance)
Method: as §1, §2, §3
2.2. In terms of interfacial tension, all the blends studied led to ultra-low values (<10^−2 mN/m). On the other hand, only the hydrophilic amido betaine derived from a branched C12 acid (ADBB12) allows obtaining a homogeneous but opalescent water solution (absorbance of 0.46) at the optimal formulation (71 wt. %).

[3] = Interfacial tension calculated from solubility ratios at the equilibrium phase behavior
Method: as §3

[4] = Interfacial tension with crude oil by spinning drop methods; conditions: mixture of ADBB12 and the betaine from C23 ketones derived diamine at the optimal wt. %
Method: All the linear alkyl betaines, solutions separate in two phases or forms really turbid solutions (0.86 absorbance). Interfacial tension with crude oil of the mixture ADBB12 and the betaine from C23 ketones derived diamine at the optimal wt. % was evaluated by spinning drop methods. The ultra-low interfacial tension was confirmed (=10^−3 mN/m).

Which results are given for `CCCCCCC(CCCC)C(=O)NCCC[N+](C)(C)CC(=O)[O-]` (stereo not shown) [ADBB12]?
Optimal % co-surfactant ([1]; blend with betaine of example 1.3.1, brine 50 g/L NaCl, total surfactant 8 g/L, crude oil, 40° C., wt. % of co-surfactant in the blend): 71%; Optimal % co-surfactant ([1]; blend with sulfobetaine from C23 ketone derived diamine, same conditions as the betaines (50 g/L NaCl, 8 g/L, crude oil, 40° C.)): 64%; Absorbance ([2]; blend with betaine of example 1.3.1 at optimal wt. % co-surfactant, brine 50 g/L NaCl, total surfactant 8 g/L): 0.46 and 0.45; Absorbance ([2]; blend with sulfobetaine from C23 ketone derived diamine at optimal wt. % co-surfactant): 0.84; γw (interfacial tension) ([3]; blend with betaine of example 1.3.1 at optimal wt. %, brine 50 g/L NaCl, 8 g/L, crude oil, 40° C.): 3,4 mN/m · 10^3; γw (interfacial tension) ([3]; blend with sulfobetaine from C23 ketone derived diamine at optimal wt. %): 3.3 mN/m · 10^3; Interfacial tension with crude oil [4]: 10^−3 mN/m
